In patent publication US11633416B1, “Oral formulations of CD73 compounds” (ARCUS BIOSCIENCES, INC., priority 2020, dated 2023):
Read-outs that look alike come from different tables or passages of the source.

How the values were obtained:
[1] = Oral exposure in cynomolgus monkeys, compound alone or with excipient in capsules; plasma by LC-MS/MS; assay type: in vivo; settings: for Oral bioavailability using calcium chelating excipients: cynomolgus monkeys, capsules, versus compound alone
Text: The influence of different excipients on the bioavailability of Compound (Ia), Compound 2 and Compound 3 in cynomolgus monkeys was investigated. The excipients tested were sodium phytate, sodium citrate, sodium EDTA, cyclodextrin, sodium taurocholate, sodium polystyrene sulfate, sodium caprate, sodium phosphate, carbomer 971P and palmitoyl carnitine chloride. Generally, an appropriate quantity (as indicated in Table 1) of Compound (Ia), Compound 2 or Compound 3 and an excipient were mixed to homogeneity and transferred to capsules for dosing. In one example, Compound (Ia) (500 mg assay, 1.063 correction factor applied for to account for purity) and 2.75 g of sodium phytate (Sigma) were combined in a mortar and pestle. The mixture was ground to homogeneity then 530 mg of the white powder was transferred to enteric capsules (Size 0) prior to dosing.
[…] Compound (Ia), Compound 2 or Compound 3, either alone, or with excipient, in an enteric capsule was administered via an oral pet piller. Blood samples were collected from a peripheral vessel at designated time points, and centrifuged to obtain plasma.
(§1) Plasma samples obtained at each time point from the subjects were prepared by protein precipitation. An aliquot of 50 μL sample was added with 150 μL acetonitrile containing an internal standard ([[[(2R,3S,4R,5R)-5-[6-chloro-4-[[(1S)-2,2,2-trideuterio-1-(2-fluorophenyl)ethyl]amino]pyrazolo[3,4-b]pyridin-1-yl]-3,4-dihydroxyoxolan-2-yl]-dideuteriomethoxy]-hydroxyphosphoryl]methylphosphonic acid, 200 ng/mL in Acetonitrile). The mixture was vortexed for 15 min and then centrifuged at 4500 rpm for 15 min at 4° C. (Sorvall Legend XTR centrifuge, Thermo Scientific, Langenselbold, Germany). 80 μL of the resulting supernatant was transferred into a new plate and mixed with 160 μL water followed by LC-MS/MS analysis.
(§2) • API 4000 mass spectrometer (Applied Biosystems, Foster City, Calif.) • Shimadzu Nexera X^2 UHPLC System (Shimadzu Scientific Instruments, Canby, Oreg.) Column: SHISEIDO CAPCELL PAK INERT ADME S3 (2.00 mm×50 mm, Part No. 79001) Mobile Phase A: 8.6 mM Triethylamine, 100 mM HFIP (1,1,1,3,3,3-Hexafluoro-2-propanol) in Water Mobile Phase B: 8.6 mM Triethylamine, and 100 mM HFIP in [Acetonitrile:water (95:5, v/v) Needle wash (weak & strong): Acetone:MeCN:Water (80:20:20, v/v/v) Flow Rate: 0.50 mL/min HPLC Gradient:
• Ionization Mode: Electrospray (ESI) • Detection Mode: Negative MRM (Q1/Q3 transitions: m/z 579.0/157.0 for Compound (Ia) or Compound 3; m/z 584.0/157.0 for Internal Standard); (Q1/Q3 transitions m/z 562.2/157.0 for Compound 2; m/z 584.0/157.0 for Internal Standard)

[2] = Oral bioavailability in male Sprague-Dawley rats, compound alone or with excipient in water pH 8 by oral gavage; plasma by LC-MS/MS; assay type: in vivo; settings: for Bioavailability (% F): oral gavage
Experimental: The influence of different excipients on the bioavailability of Compound 2 was investigated in Sprague Dawley rats. The excipients tested were Solutol HS 15, soy L-α-phosphatidylcholine, trisodium citrate, sodium caprate, disodium EDTA, and sodium phytate. Generally, 10-30 mg of Compound 2 and the indicated quantity (Table 5) of excipient was combined and dissolved in 5 mL water. The pH was adjusted to a pH of 8 using HCl or NaOH as needed.
Male Sprague-Dawley rats, weighing between 0.27 to 0.32 kg, were fasted overnight prior to dose administration through approximately 4 hours post-dose. Compound 2 was administered orally by orogastric gavage at 5 mL/kg. Blood samples were collected via femoral vein at designated time points, and centrifuged to obtain plasma.
as §1, with “([(2R,3S,4R,5R)-5-[2-chloro-6-(cyclopentylmethylamino)purin-9-yl]-3,4-dihydroxyoxolan-2-yl]methoxymethylphosphonic” for “([[[(2R,3S,4R,5R)-5-[6-chloro-4-[[(1S)-2,2,2-trideuterio-1-(2-fluorophenyl)ethyl]amino]pyrazolo[3,4-b]pyridin-1-yl]-3,4-dihydroxyoxolan-2-yl]-dideuteriomethoxy]-hydroxyphosphoryl]methylphosphonic”
as §2, with “(1,1 1,3,3,3-Hexafluoro-2-propanol)” for “(1,1,1,3,3,3-Hexafluoro-2-propanol)”, “Acetone: MeCN: Water” for “Acetone:MeCN:Water”, “mL/min” for “mL/min HPLC Gradient:”
• Ionization Mode: Electrospray (ESI) • Detection Mode: Negative MRM (Q1/Q3 transitions: m/z 562.2/157.0 for Compound 2; m/z 584.0/157.0 for Internal Standard)

[3] = male, cynomolgus monkey, plasma, po, 50 mg, enteric capsule, with 195 mg sodium citrate, 3 mg SDS, fasted
[4] = male, cynomolgus monkey, plasma, po, 50 mg, enteric capsule, with 275 mg sodium phytate (Sigma-Aldrich, ≥5 mol sodium/mol), fasted
[5] = male, cynomolgus monkey, plasma, po, 50 mg, oral, enteric capsule, dose 50 mg, with 195 mg sodium citrate, 3 mg SDS, fasted, read-out: Cmax
[6] = male, cynomolgus monkey, plasma, po, 50 mg, oral, enteric capsule, dose 50 mg, with 275 mg sodium phytate (Sigma-Aldrich, ≥5 mol sodium/mol), fasted, read-out: Cmax
[7] = male, cynomolgus monkey, plasma, po, 50 mg, Table 3: dose 50 mg, dosed with 195 mg trisodium citrate and 3 mg SDS, enteric capsules
[8] = male, cynomolgus monkey, plasma, po, 50 mg, Table 3: dose 50 mg, dosed with 195 mg trisodium citrate and 3 mg SDS, enteric capsules, read-out: Cmax
[9] = male, cynomolgus monkey, plasma, po, 50 mg, Table 4: dose 50 mg, dosed with 275 mg sodium phytate, enteric capsules
[10] = male, cynomolgus monkey, plasma, po, 50 mg, Table 4: dose 50 mg, dosed with 275 mg sodium phytate, enteric capsules, read-out: Cmax
[11] = oral, enteric capsule, dose 50 mg, with 275 mg sodium phytate (Sigma-Aldrich, ≥5 mol sodium/mol), fasted

C[C@H](Nc1nc(Cl)nc2c1cnn2[C@@H]1O[C@H](COP(=O)(O)CP(=O)(O)O)[C@@H](O)[C@H]1O)c1ccccc1 [2 (Neutral)]
AUC(0-inf) ([1]; male, cynomolgus monkey, plasma, po, 50 mg, enteric capsule, with 195 mg sodium citrate, 6 mg sodium dodecyl sulfate (SDS), fasted): 129000 ng·h/mL
AUC(0-inf) ([1]; male, cynomolgus monkey, plasma, po, 50 mg, gelatin capsule, with 195 mg sodium citrate, 6 mg SDS, fasted): 151000 ng·h/mL
Cmax ([1]; male, cynomolgus monkey, plasma, po, 50 mg, oral, enteric capsule, dose 50 mg, with 195 mg sodium citrate, 6 mg sodium dodecyl sulfate (SDS), fasted, read-out: Cmax): 3140 ng/mL
Cmax ([1]; male, cynomolgus monkey, plasma, po, 50 mg, oral, gelatin capsule, dose 50 mg, with 195 mg sodium citrate, 6 mg SDS, fasted, read-out: Cmax): 3180 ng/mL

C[C@H](Nc1cc(Cl)nc2c1cnn2[C@@H]1O[C@H](COP(=O)(O)CP(=O)(O)O)[C@@H](O)[C@H]1O)c1ccc(F)cc1 [3 ( 3Na)]
AUC(0-inf) [1, 3]: 38700 ng·h/mL
AUC(0-inf) [1, 4]: 149000 ng·h/mL
Cmax [1, 5]: 1320 ng/mL
Cmax [1, 6]: 3550 ng/mL

C[C@H](Nc1cc(Cl)nc2c1cnn2[C@@H]1O[C@H](COP(=O)(O)CP(=O)(O)O)[C@@H](O)[C@H]1O)c1ccc(F)cc1 [Compound 3]
Oral bioavailability using calcium chelating excipients [1]: Improved
AUC(0-inf) [1, 7]: 38700 ng·h/mL
Cmax [1, 8]: 1320 ng/mL
AUC(0-inf) [1, 9]: 149000 ng·h/mL
Cmax [1, 10]: 3550 ng/mL

C[C@H](Nc1cc(Cl)nc2c1cnn2[C@@H]1O[C@H](COP(=O)(O)CP(=O)(O)O)[C@@H](O)[C@H]1O)c1ccccc1F [Ia (Neutral), (((((2R,3S,4R,5R)-5-(6-chloro-4-(((S)-1-(2-fluorophenyl)ethyl)amino)-1H-pyrazolo[3,4-b]pyridin-1-yl)-3,4-dihydroxytetrahydrofuran-2-yl)methoxy)(hydroxy)phosphoryl)methyl)phosphonic acid]
Exposure Enhancement ([1]; oral, enteric capsule, dose 50 mg, with 275 mg sodium phytate (Sigma-Aldrich), relative to 50 mg Ia ( 3Na) without absorption enhancer): 7.6-fold^b
AUC0-∞ [1, 11]: 102,000 h*ng/mL
Cmax [1, 11]: 2,790 ng/mL

C[C@H](Nc1nc(Cl)nc2c1cnn2[C@@H]1O[C@H](COP(=O)(O)CP(=O)(O)O)[C@@H](O)[C@H]1O)c1ccccc1 [Compound 2]
Oral bioavailability using calcium chelating excipients [1]: Improved
AUC(0-inf) [1, 7]: 67100 ng·h/mL
Cmax [1, 8]: 2530 ng/mL
AUC(0-inf) [1, 9]: 105000 ng·h/mL
Cmax [1, 10]: 2320 ng/mL
Oral bioavailability using calcium chelating excipients ([2]; SD rats, 10-30 mg/kg + excipient in water at pH 8 via oral gavage, 5 mL/kg): Improved
Bioavailability (% F) ([2]; 10 mg/kg, excipient: Sodium phytate (Sigma) 165 mg/SDS 2 mg): 2.0 % F
Bioavailability (% F) ([2]; 10 mg/kg, excipient: Sodium phytate (Sigma, ≥5 mol sodium/mol) 165 mg): 2.3 % F
Bioavailability (% F) ([2]; 10 mg/kg, excipient: Trisodium citrate 64.5 mg/sodium caprate 49 mg): 0.23 % F
Bioavailability (% F) ([2]; 30 mg/kg, excipient (mg/kg): Solutol HS 15, 1,500): 0.015 % F
Bioavailability (% F) ([2]; 30 mg/kg, excipient: Disodium EDTA 5 mg): 0.60 % F
Bioavailability (% F) ([2]; 30 mg/kg, excipient: Disodium EDTA 20 mg): 2.8 % F
Bioavailability (% F) ([2]; 30 mg/kg, excipient: None): 0.03 % F
Bioavailability (% F) ([2]; 30 mg/kg, excipient: Soy L-α-phosphatidylcholine 150 mg): 0.07 % F
Bioavailability (% F) ([2]; 30 mg/kg, excipient: Trisodium citrate 20 mg): 0.10 % F
Bioavailability (% F) ([2]; 30 mg/kg, excipient: Trisodium citrate 64.5 mg): 0.60 % F

C[C@H](Nc1cc(Cl)nc2c1cnn2[C@@H]1O[C@H](COP(=O)(O)CP(=O)(O)O)[C@@H](O)[C@H]1O)c1ccccc1F [Compound (Ia), (((((2R,3S,4R,5R)-5-(6-chloro-4-(((S)-1-(2-fluorophenyl)ethyl)amino)-1H-pyrazolo[3,4-b]pyridin-1-yl)-3,4-dihydroxytetrahydrofuran-2-yl)methoxy)(hydroxy)phosphoryl)methyl)phosphonic acid]
Oral bioavailability using calcium chelating excipients [1]: Improved
AUC(0-inf) [1, 7]: 22200 ng·h/mL
Cmax [1, 8]: 922 ng/mL
AUC(0-inf) [1, 9]: 122000 ng·h/mL
Cmax [1, 10]: 3680 ng/mL

C[C@H](Nc1nc(Cl)nc2c1cnn2[C@@H]1O[C@H](COP(=O)(O)CP(=O)(O)O)[C@@H](O)[C@H]1O)c1ccccc1 [2 (Na)]
AUC(0-inf) ([1]; male, cynomolgus monkey, plasma, po, 10 mg, enteric capsule, neat, fasted): 918 ng·h/mL
AUC(0-inf) ([1]; male, cynomolgus monkey, plasma, po, 10 mg, enteric capsule, with 195 mg sodium citrate, 3 mg SDS, fasted): 4880 ng·h/mL
AUC(0-inf) ([1]; male, cynomolgus monkey, plasma, po, 10 mg, enteric capsule, with 195 mg sodium citrate, fasted): 8840 ng·h/mL
AUC(0-inf) ([1]; male, cynomolgus monkey, plasma, po, 10 mg, enteric capsule, with 275 mg sodium phytate (Sigma-Aldrich), fasted): 6010 ng·h/mL
Cmax ([1]; male, cynomolgus monkey, plasma, po, 10 mg, oral, enteric capsule, dose 10 mg, neat, fasted, read-out: Cmax): 161 ng/mL
Cmax ([1]; male, cynomolgus monkey, plasma, po, 10 mg, oral, enteric capsule, dose 10 mg, with 195 mg sodium citrate, 3 mg SDS, fasted, read-out: Cmax): 997 ng/mL
Cmax ([1]; male, cynomolgus monkey, plasma, po, 10 mg, oral, enteric capsule, dose 10 mg, with 195 mg sodium citrate, fasted, read-out: Cmax): 791 ng/mL
Cmax ([1]; male, cynomolgus monkey, plasma, po, 10 mg, oral, enteric capsule, dose 10 mg, with 275 mg sodium phytate (Sigma-Aldrich), fasted, read-out: Cmax): 824 ng/mL
AUC(0-inf) [1, 3]: 67100 ng·h/mL
AUC(0-inf) [1, 4]: 105000 ng·h/mL
Cmax [1, 5]: 2530 ng/mL
Cmax [1, 6]: 2320 ng/mL
Exposure Enhancement ([1]; oral, enteric capsule, dose 10 mg, with 195 mg sodium citrate, 3 mg SDS, relative to 10 mg dose of 2(Na) without absorption enhancer): 5.3-fold^e
Exposure Enhancement ([1]; oral, enteric capsule, dose 10 mg, with 195 mg sodium citrate, relative to 10 mg dose of 2(Na) without absorption enhancer): 9.6-fold^e
Exposure Enhancement ([1]; oral, enteric capsule, dose 10 mg, with 275 mg sodium phytate (Sigma-Aldrich), relative to 10 mg dose of 2(Na) without absorption enhancer): 6.6-fold^e
